For 21 compounds, fold induction results are on record in patent publication US10766869B2, “Triazoles for the treatment of demyelinating dieases” (Vertex Pharmaceuticals Incorporated, priority 2015, dated 2020).

SMILES strings stand for the structures. Like-named read-outs stand apart in the source and are kept apart here. Some results are limits rather than exact numbers.

The subject of the experiment is primary rat mixed cortical cells. The experiment can be described thus: In vitro myelination assay (MBP positive myelin strands, fold myelin pixels above background). Type of experiment: cell-based. The following applies: Rattus norvegicus; for fold induction at 1 µM: 1.0 μM compound; for fold induction at 10 µM: 10.0 μM compound. The gist of the method:
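Mixed cortical culture, P1 rat, 87,500-95,000 cells/well; compound present from seeding, refreshed days 6 and 10; 14 d, 37 °C, 5% CO2. Day 14: PFA fix, anti-MBP + Hoechst. Read-out: fold MBP myelin pixels over untreated, tested at 1.0 and 10.0 μM.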

Where [1] appears, read: relative to baseline of no added compound, read-out: Fold myelin pixels above background.
Where [2] appears, read: read-out: Fold myelin pixels above background relative to baseline of no added compound.
[3] abbreviates: relative to baseline of no added compound, read-out: Fold myelin pixels above background, 1.0 μM.
Where [4] appears, read: relative to baseline of no added compound, read-out: Fold myelin pixels above background, 10.0 μM.

Take `Fc1cc(F)cc(-n2cnc(Nc3cc(N4CCOCC4)cc(C(F)(F)F)c3)n2)c1` [Compound 475, 1-(3,5-difluorophenyl)-N-[3-morpholino-5-(trifluoromethyl)phenyl]-1,2,4-triazol-3-amine]: under setting [1], the fold induction at 1 µM is 100 to 1000 and the fold induction at 10 µM is 1000 to 10000.
Consider `COCC1(CNc2cc(C)cc(Nc3ncn(-c4cc(F)cc(F)c4)n3)c2)CC1` [Compound 937, N1-[1-(3,5-difluorophenyl)-1,2,4-triazol-3-yl]-N3-[[1-(methoxymethyl)cyclopropyl]methyl]-5-methyl-benzene-1,3-diamine], for which, under setting [2], the fold induction at 1 µM was in the range of 1 to 10 and the fold induction at 10 µM was no more than 1.
As for `Cc1cc(Nc2ncn(-c3cc(F)cc(F)c3)n2)cc(N2CCN(CC3CCCN(C)C3)CC2)c1` (stereo not drawn) [Compound 1047, 1-(3,5-difluorophenyl)-N-[3-methyl-5-[4-[(1-methyl-3-piperidyl)methyl]piperazin-1-yl]phenyl]-1,2,4-triazol-3-amine], under setting [2], the fold induction at 1 µM fell in the range of 1 to 10 and the fold induction at 10 µM was no more than 1.
For the compound `Cc1cc(NCC2CCCC2N2CCOCC2)cc(Nc2ncn(-c3cc(F)cc(F)c3)n2)c1` (stereo not drawn) [Compound 895, N1-[1-(3,5-difluorophenyl)-1,2,4-triazol-3-yl]-5-methyl-N3-[(2-morpholinocyclopentyl)methyl]benzene-1,3-diamine], under setting [2], the fold induction at 1 µM lay in the range of 10 to 100 and the fold induction at 10 µM lay within 1 to 10.
`Cc1cc(Nc2ncn(-c3cc(F)cc(F)c3)n2)cc(N2CCC(N3CCOCC3C)CC2)c1` (stereo not drawn) [Compound 988, 1-(3,5-difluorophenyl)-N-[3-methyl-5-[4-(3-methylmorpholin-4-yl)-1-piperidyl]phenyl]-1,2,4-triazol-3-amine]: under setting [2], the fold induction at 1 µM is 10 to 100 and the fold induction at 10 µM lay in the range of 1 to 10.
In the case of `CCOCC1CCCN1c1cc(F)cc(-n2cnc(Nc3cc(C)cc(N4CCN(C5COC5)CC4)c3)n2)c1` (stereo not drawn) [Compound 41, 1-[3-[2-(ethoxymethyl)pyrrolidin-1-yl]-5-fluoro-phenyl]-N-[3-methyl-5-[4-(oxetan-3-yl)piperazin-1-yl]phenyl]-1,2,4-triazol-3-amine], under setting [3], the fold induction at 1 µM lay in the range of 10 to 100. The fold induction at 10 µM under setting [4] was no more than 1.
In the case of `Cc1cc(Nc2ncn(-c3cnccn3)n2)cc(N2CCN(C)CC2)c1` [Compound 68, N-[3-methyl-5-(4-methylpiperazin-1-yl)phenyl]-1-pyrazin-2-yl-1,2,4-triazol-3-amine], the fold induction at 1 µM under setting [3] fell in the range of 100 to 1000. Further, the fold induction at 10 µM under setting [4] is 1000 to 10000.
As for `Cc1cc(Nc2ncn(-c3ccc(F)cc3)n2)cc(C2COC2)c1` [Compound 409, 1-(4-fluorophenyl)-N-[3-methyl-5-(oxetan-3-yl)phenyl]-1,2,4-triazol-3-amine], under setting [1], the fold induction at 1 µM lay in the range of 1000 to 10000 and the fold induction at 10 µM was 100 to 1000.
For the compound `CC1CCN(c2cc(Nc3ncn(-c4ccccc4)n3)cc(C3CC3)n2)CC1` [Compound 44, 2-cyclopropyl-6-(4-methyl-1-piperidyl)-N-(1-phenyl-1,2,4-triazol-3-yl)pyridin-4-amine], the fold induction at 1 µM under setting [3] fell in the range of 1000 to 10000. Moreover, the fold induction at 10 µM under setting [4] lay in the range of 1000 to 10000.
As for `Cc1cc(Nc2ncn(-c3ccccc3)n2)cc(N2CC(N3CCOCC3)C2)c1` [Compound 704, N-[3-methyl-5-(3-morpholinoazetidin-1-yl)phenyl]-1-phenyl-1,2,4-triazol-3-amine], under setting [1], the fold induction at 1 µM was in the range of 10 to 100 and the fold induction at 10 µM is no more than 1.
Take `COc1ccc(-n2cnc(Nc3cc(C)cc(N4CC(N5CCOCC5)C4)c3)n2)cc1F` [Compound 735, 1-(3-fluoro-4-methoxy-phenyl)-N-[3-methyl-5-(3-morpholinoazetidin-1-yl)phenyl]-1,2,4-triazol-3-amine]: under setting [1], the fold induction at 1 µM was in the range of 1 to 10 and the fold induction at 10 µM was 1 to 10.
For `OCc1cc(Nc2ncn(-c3ccc(F)c(F)c3)n2)nc(N2CCN(C3COC3)CC2)c1` [Compound 713, [2-[[1-(3,4-difluorophenyl)-1,2,4-triazol-3-yl]amino]-6-[4-(oxetan-3-yl)piperazin-1-yl]-4-pyridyl]methanol], under setting [1], the fold induction at 1 µM lay within 10 to 100 and the fold induction at 10 µM is 10 to 100.
On to `Cc1cc(Nc2ncn(-c3cc(F)cc(F)c3)n2)cc(N2CCOC(CN3CCCC3)C2)c1` (stereo not drawn) [Compound 1027, 1-(3,5-difluorophenyl)-N-[3-methyl-5-[2-(pyrrolidin-1-ylmethyl)morpholin-4-yl]phenyl]-1,2,4-triazol-3-amine], for which, under setting [2], the fold induction at 1 µM was 1 to 10 and the fold induction at 10 µM is no more than 1.
`Fc1cncc(-n2cnc(Nc3cc(C4CC4)cc(N4CCN(C5COC5)CC4)c3)n2)c1` [Compound 339, N-[3-cyclopropyl-5-[4-(oxetan-3-yl)piperazin-1-yl]phenyl]-1-(5-fluoro-3-pyridyl)-1,2,4-triazol-3-amine]: the fold induction at 1 µM under setting [3] fell in the range of 100 to 1000. In addition, under setting [4], the fold induction at 10 µM was in the range of 10 to 100.
Regarding `Cc1cc(Nc2ncn(-c3ccccc3)n2)cc(N2CCN3CCC[C@@H]3C2)c1` [Compound 157, N-[3-[(8aR)-3,4,6,7,8,8a-hexahydro-1H-pyrrolo[1,2-a]pyrazin-2-yl]-5-methyl-phenyl]-1-phenyl-1,2,4-triazol-3-amine], the fold induction at 1 µM under setting [3] is 1000 to 10000. The fold induction at 10 µM under setting [4] was 1000 to 10000.
`[2H]C(C)(C)N1CCN(c2cc(C)cc(Nc3ncn(-c4ccccc4)n3)c2)CC1` [Compound 929, N-[3-[4-(1-deuterio-1-methyl-ethyl)piperazin-1-yl]-5-methyl-phenyl]-1-phenyl-1,2,4-triazol-3-amine]: under setting [2], the fold induction at 1 µM lay within 10 to 100 and the fold induction at 10 µM is no more than 1.
For `Fc1cc(F)cc(-n2cnc(Nc3cc(C4COC4)cc(N4CCN(C5COC5)CC4)c3)n2)c1` [Compound 313, 1-(3,5-difluorophenyl)-N-[3-(oxetan-3-yl)-5-[4-(oxetan-3-yl)piperazin-1-yl]phenyl]-1,2,4-triazol-3-amine], under setting [3], the fold induction at 1 µM was 1 to 10. In addition, the fold induction at 10 µM under setting [4] lay in the range of 100 to 1000.
Take `Fc1cc(Nc2ncn(-c3cccc(F)c3)n2)cc(N2CCCOCC2)c1` [Compound 166, N-[3-fluoro-5-(1,4-oxazepan-4-yl)phenyl]-1-(3-fluorophenyl)-1,2,4-triazol-3-amine]: under setting [3], the fold induction at 1 µM was in the range of 100 to 1000. Under setting [4], the fold induction at 10 µM lay in the range of 10 to 100.
In the case of `Cc1cc(Nc2ncn(-c3ccc(F)c(F)c3)n2)cc(NC2CC(N3CCOCC3)C2)c1` (stereo not drawn) [Compound 799, N3-[1-(3,4-difluorophenyl)-1,2,4-triazol-3-yl]-5-methyl-N1-(3-morpholinocyclobutyl)benzene-1,3-diamine], under setting [2], the fold induction at 1 µM lay within 10 to 100 and the fold induction at 10 µM is no more than 1.
For the compound `Cc1cc(Nc2ncn(-c3cc(F)cc(F)c3)n2)cc(N2CCN(CC3CCOC3)CC2)c1` (stereo not drawn) [Compound 936, 1-(3,5-difluorophenyl)-N-[3-methyl-5-[4-(tetrahydrofuran-3-ylmethyl)piperazin-1-yl]phenyl]-1,2,4-triazol-3-amine], under setting [2], the fold induction at 1 µM fell in the range of 10 to 100 and the fold induction at 10 µM was no more than 1.
In the same order, the values of `FC(F)c1cc(Nc2ncn(-c3cccc(C(F)(F)F)c3)n2)nc(N2CCOCC2)c1` [Compound 867, 4-(difluoromethyl)-6-morpholino-N-[1-[3-(trifluoromethyl)phenyl]-1,2,4-triazol-3-yl]pyridin-2-amine] are 10 to 100 and 10 to 100.
